# Test results from patent publication US11236106B2, “Cycloalkane-1,3-diamine derivative” (Daiichi Sankyo Company, Limited, priority 2018, dated 2022).
# Where a name gives a salt, the structure may show the parent alone. Read-outs that look alike come from different tables or passages of the source.
# What was measured:
# MV-4-11 cells [1] = details: Exp. Ex. 3-3, oral, 31 days after transplantation
# Protocol: MV-4-11 cells were purchased from ATCC. The female FOX CHASE SCID C.B.17/Icr-scid/scidJcl mice were purchased from Claire Japan. […] The compound was administered as a suspension in 0.5% MC. For the compound-free group, 0.5% MC was administered as a solvent. The estimated individual tumor volume was measured from the day of the grouping to 31 days after the transplantation (test end date).
# [2] = biological target: T1, menin and MLL (menin, Flag tagged; biotinylated MLL1 peptide 1-46aa) (Homo sapiens, UniProt O00255); experiment: biochemical; details: 1 nM menin, 10 nM biotinylated MLL1 peptide, AlphaLISA
# T1 sequence (O00255 1-610): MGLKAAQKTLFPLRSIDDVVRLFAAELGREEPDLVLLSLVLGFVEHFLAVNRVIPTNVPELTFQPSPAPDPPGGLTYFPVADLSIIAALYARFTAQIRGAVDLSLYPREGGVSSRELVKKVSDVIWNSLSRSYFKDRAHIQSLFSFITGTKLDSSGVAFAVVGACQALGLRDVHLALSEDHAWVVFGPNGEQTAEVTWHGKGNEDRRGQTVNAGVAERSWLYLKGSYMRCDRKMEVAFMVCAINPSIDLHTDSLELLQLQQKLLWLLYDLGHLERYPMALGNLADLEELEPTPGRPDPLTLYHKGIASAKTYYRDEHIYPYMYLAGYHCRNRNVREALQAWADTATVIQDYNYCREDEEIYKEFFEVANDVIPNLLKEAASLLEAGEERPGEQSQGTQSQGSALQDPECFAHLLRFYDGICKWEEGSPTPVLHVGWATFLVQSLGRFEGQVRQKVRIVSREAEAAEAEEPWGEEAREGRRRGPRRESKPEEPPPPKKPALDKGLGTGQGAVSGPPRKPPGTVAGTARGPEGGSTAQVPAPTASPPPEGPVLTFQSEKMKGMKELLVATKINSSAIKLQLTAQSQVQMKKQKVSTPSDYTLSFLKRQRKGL
# Protocol: Then, the fluorescence signal by AlphaLISA (registered trademark, PerkinElmer Co., Ltd.) was measured using a plate reader (PerkinElmer Co., Ltd., EnVisionXcite).
# MV-4-11 cells [3] = experiment: Antitumor activity in MV-4-11 cell subcutaneous transplant model (Experimental Example 3-4); format: in vivo, mice; details: Exp. Ex. 3-4, oral, 32 days after transplantation
# Protocol: MV-4-11 cells were purchased from ATCC. The female FOX CHASE SCID C.B.17/Icr-scid/scidJcl mice were purchased from Claire Japan. […] The compound was administered as a suspension in 0.5% MC. For the compound-free group, 0.5% MC was administered as a solvent. The estimated individual tumor volume was measured from the day of the grouping to 32 days after the transplantation (test end date).
# Tumor growth inhibitory rate %=(1−TVCt/TVCc)×100 TVC=(Individual tumor volume on the test end date)−(Individual tumor volume on the grouping date) TVCt: TVC mean value of the compound administration group TVCc: TVC mean value of the compound-free group
# [4] = IC50, binding inhibitory activity between menin and MLL
structure (smiles),measurement,setting,value
"CN(c1ncnc2sc(CC(F)(F)F)cc12)[C@H]1C[C@@H](NCc2ccc(-c3cccc4c3cnn4S(C)(=O)=O)cc2)C[C@H]1O [Example 23, (1R,2S,4R)-4-[({4-[1-(methanesulfonyl)-1H-indazol-4-yl]phenyl}methyl)amino]-2-{methyl[6-(2,2,2-trifluoroethyl)thieno[2,3-d]pyrimidin-4-yl]amino}cyclopentan-1-ol Hydrochloride]",Estimated tumor volume (test end date) Mean ± S.E.,"MV-4-11 cells [1]; qdx17, 25 mg/kg/day",616 ± 86
same,Estimated tumor volume (test end date) Mean ± S.E.,"MV-4-11 cells [1]; qdx17, 50 mg/kg/day",31 ± 10
same,Estimated tumor volume (test end date) Mean ± S.E.,"MV-4-11 cells [1]; qdx17, 100 mg/kg/day",0 ± 0
same,IC50,[2]; cell free IC50 (nM),2.8 nM
"COc1cc(-c2ccc(CN[C@H]3C[C@@H](O)[C@@H](N(C)c4ncnc5sc(CC(F)(F)F)cc45)C3)cc2)cnc1C.Cl [Example 60, (1R,2S,4R)-4-({[4-(5-methoxy-6-methylpyridin-3-yl)phenyl]methyl}amino)-2-{methyl[6-(2,2,2-trifluoroethyl)thieno[2,3-d]pyrimidin-4-yl]amino}cyclopentan-1-ol hydrochloride]",IC50,[2]; cell free IC50 (nM),2.4 nM
same,Estimated tumor volume (test end date) Mean ± S.E.,"MV-4-11 cells [3]; qdx16, 25 mg/kg/day",558 ± 79
same,Estimated tumor volume (test end date) Mean ± S.E.,"MV-4-11 cells [3]; qdx16, 50 mg/kg/day",25 ± 11
same,Estimated tumor volume (test end date) Mean ± S.E.,"MV-4-11 cells [3]; qdx16, 100 mg/kg/day",0 ± 0
"COc1cc(-c2ccc(CN[C@H]3C[C@@H](O)[C@@H](N(C)c4ncnc5sc(CC(F)(F)F)cc45)C3)cc2)cnc1OC.Cl [Example 67, (1R,2S,4R)-4-({[4-(5,6-dimethoxypyridin-3-yl)phenyl]methyl}amino)-2-{methyl[6-(2,2,2-trifluoroethyl)thieno[2,3-d]pyrimidin-4-yl]amino}cyclopentan-1-ol hydrochloride]",IC50,[2]; [4],2.1 nM
same,Estimated tumor volume (test end date) Mean ± S.E.,"MV-4-11 cells [3]; qdx16, 25 mg/kg/day",896 ± 56
same,Estimated tumor volume (test end date) Mean ± S.E.,"MV-4-11 cells [3]; qdx16, 50 mg/kg/day",381 ± 59
same,Estimated tumor volume (test end date) Mean ± S.E.,"MV-4-11 cells [3]; qdx16, 100 mg/kg/day",0 ± 0
"COc1cc(-c2ccc(CN[C@H]3C[C@@H](O)[C@@H](N(C)c4ncnc5sc(CC(F)(F)F)cc45)C3)cc2)cnc1F.Cl [Example 68, (1R,2S,4R)-4-({[4-(6-fluoro-5-methoxypyridin-3-yl)phenyl]methyl}amino)-2-{methyl[6-(2,2,2-trifluoroethyl)thieno[2,3-d]pyrimidin-4-yl]amino}cyclopentan-1-ol hydrochloride]",Estimated tumor volume (test end date) Mean ± S.E.,"MV-4-11 cells [1]; qdx17, 25 mg/kg/day",1151 ± 142
same,Estimated tumor volume (test end date) Mean ± S.E.,"MV-4-11 cells [1]; qdx17, 50 mg/kg/day",559 ± 104
same,Estimated tumor volume (test end date) Mean ± S.E.,"MV-4-11 cells [1]; qdx17, 100 mg/kg/day",31 ± 23
same,IC50,[2]; [4],1.7 nM
